# Measured values reported in PubChem BioAssay (NCI).
#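 Exposure lasted 48 hours, with cells grown in 96-well plates and compounds tested at five concentrations. TGI: concentration producing complete growth inhibition.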
# What was measured:
# Assay in all cases: NCI anticancer screen, dose series, 48 h
# TK-10 renal = test system: TK-10 renal
# EKVX NSCLC = test system: EKVX NSCLC
# PC-3 prostate = test system: PC-3 prostate
# NCI-H226 lung = test system: NCI-H226 lung
# HOP-62 NSCLC = test system: HOP-62 NSCLC
# HCC-2998 colon = test system: HCC-2998 colon
# M14 melanoma = test system: M14 melanoma
# RPMI-8226 leukemia = test system: RPMI-8226 leukemia
# HCT-15 colon = test system: HCT-15 colon
# UACC-257 melanoma = test system: UACC-257 melanoma
# MALME-3M melanoma = test system: MALME-3M melanoma
# HCT-116 colon = test system: HCT-116 colon
# BT-549 breast = test system: BT-549 breast
# SF-295 CNS = test system: SF-295 CNS
# NCI-H23 lung = test system: NCI-H23 lung
# K-562 leukemia = test system: K-562 leukemia
# MDA-MB-231 breast = test system: MDA-MB-231 breast
# HT29 colon = test system: HT29 colon
# RXF 393 renal = test system: RXF 393 renal
# SN12C renal = test system: SN12C renal
# MDA-MB-435 = test system: MDA-MB-435
# OVCAR-4 ovarian = test system: OVCAR-4 ovarian
# DU-145 prostate = test system: DU-145 prostate
# OVCAR-5 ovarian = test system: OVCAR-5 ovarian
# SNB-19 CNS = test system: SNB-19 CNS
# UO-31 renal = test system: UO-31 renal
# OVCAR-3 ovarian = test system: OVCAR-3 ovarian
# LOX IMVI melanoma = test system: LOX IMVI melanoma
# SK-OV-3 ovarian = test system: SK-OV-3 ovarian
# U251 CNS = test system: U251 CNS
# MDA-N = test system: MDA-N
# MOLT-4 leukemia = test system: MOLT-4 leukemia
# KM12 colon = test system: KM12 colon
# NCI-H522 lung = test system: NCI-H522 lung
# SK-MEL-5 melanoma = test system: SK-MEL-5 melanoma
# SW-620 colon = test system: SW-620 colon
# SR leukemia = test system: SR leukemia
# MCF7 breast = test system: MCF7 breast
# SF-268 CNS = test system: SF-268 CNS
# 786-0 renal = test system: 786-0 renal
# SK-MEL-28 melanoma = test system: SK-MEL-28 melanoma
# NCI/ADR-RES ovarian = test system: NCI/ADR-RES ovarian
# OVCAR-8 ovarian = test system: OVCAR-8 ovarian
# HOP-92 NSCLC = test system: HOP-92 NSCLC
# HS 578T breast = test system: HS 578T breast
# A549 NSCLC = test system: A549 NSCLC
# ACHN renal = test system: ACHN renal
# SNB-75 CNS = test system: SNB-75 CNS
# T-47D breast = test system: T-47D breast
# COLO 205 colon = test system: COLO 205 colon
# CCRF-CEM leukemia = test system: CCRF-CEM leukemia
# IGROV1 ovarian = test system: IGROV1 ovarian
# A498 renal = test system: A498 renal
# UACC-62 melanoma = test system: UACC-62 melanoma
# SF-539 CNS = test system: SF-539 CNS
# NCI-H460 lung = test system: NCI-H460 lung
# SK-MEL-2 melanoma = test system: SK-MEL-2 melanoma
# CAKI-1 renal = test system: CAKI-1 renal
# HL-60(TB) leukemia = test system: HL-60(TB) leukemia
smiles,measurement,setting,value
CC(C)c1nc(Cl)nc(Cl)c1Cl,TGI,TK-10 renal,4.28 µM
same,TGI,EKVX NSCLC,6.62 µM
same,TGI,PC-3 prostate,4.19 µM
same,TGI,NCI-H226 lung,5.58 µM
same,TGI,HOP-62 NSCLC,4.04 µM
same,TGI,HCC-2998 colon,13.1 µM
same,TGI,M14 melanoma,1.83 µM
same,TGI,RPMI-8226 leukemia,> 100 µM
same,TGI,HCT-15 colon,15.7 µM
same,TGI,UACC-257 melanoma,1.91 µM
same,TGI,MALME-3M melanoma,12.9 µM
same,TGI,HCT-116 colon,1.41 µM
same,TGI,BT-549 breast,0.0335 µM
same,TGI,SF-295 CNS,8.91 µM
same,TGI,NCI-H23 lung,3.05 µM
same,TGI,K-562 leukemia,0.0708 µM
same,TGI,MDA-MB-231 breast,5.64 µM
same,TGI,HT29 colon,2.52 µM
same,TGI,RXF 393 renal,1.47 µM
same,TGI,SN12C renal,2.83 µM
same,TGI,MDA-MB-435,2.69 µM
same,TGI,OVCAR-4 ovarian,0.751 µM
same,TGI,DU-145 prostate,10.5 µM
same,TGI,OVCAR-5 ovarian,3.93 µM
same,TGI,SNB-19 CNS,3.06 µM
same,TGI,UO-31 renal,0.166 µM
same,TGI,OVCAR-3 ovarian,1.74 µM
same,TGI,LOX IMVI melanoma,0.198 µM
same,TGI,SK-OV-3 ovarian,17.6 µM
same,TGI,U251 CNS,2.43 µM
same,TGI,MDA-N,4.9 µM
same,TGI,MOLT-4 leukemia,0.176 µM
same,TGI,KM12 colon,3.9 µM
same,TGI,NCI-H522 lung,1.54 µM
same,TGI,SK-MEL-5 melanoma,6.7 µM
same,TGI,SW-620 colon,0.858 µM
same,TGI,SR leukemia,0.0209 µM
same,TGI,MCF7 breast,6.11 µM
same,TGI,SF-268 CNS,9.12 µM
same,TGI,786-0 renal,2.26 µM
same,TGI,SK-MEL-28 melanoma,2.72 µM
same,TGI,NCI/ADR-RES ovarian,> 56.4 µM
same,TGI,OVCAR-8 ovarian,2.45 µM
same,TGI,HOP-92 NSCLC,0.381 µM
same,TGI,HS 578T breast,2.91 µM
same,TGI,A549 NSCLC,18.6 µM
same,TGI,ACHN renal,1.85 µM
same,TGI,SNB-75 CNS,22.7 µM
same,TGI,T-47D breast,13.6 µM
same,TGI,COLO 205 colon,13.9 µM
same,TGI,CCRF-CEM leukemia,0.0358 µM
same,TGI,IGROV1 ovarian,0.423 µM
same,TGI,A498 renal,9.37 µM
same,TGI,UACC-62 melanoma,2.25 µM
same,TGI,SF-539 CNS,1.82 µM
same,TGI,NCI-H460 lung,16.6 µM
C=CCCC1CCCCNC1=S (configuration not stated),TGI,TK-10 renal,> 10 µM
same,TGI,EKVX NSCLC,> 10 µM
same,TGI,PC-3 prostate,> 10 µM
same,TGI,NCI-H226 lung,> 10 µM
same,TGI,HOP-62 NSCLC,> 10 µM
same,TGI,HCC-2998 colon,> 10 µM
same,TGI,M14 melanoma,> 10 µM
same,TGI,RPMI-8226 leukemia,> 10 µM
same,TGI,HCT-15 colon,> 10 µM
same,TGI,UACC-257 melanoma,> 10 µM
same,TGI,MALME-3M melanoma,> 10 µM
same,TGI,HCT-116 colon,> 10 µM
same,TGI,BT-549 breast,> 10 µM
same,TGI,SF-295 CNS,> 10 µM
same,TGI,NCI-H23 lung,> 10 µM
same,TGI,K-562 leukemia,> 10 µM
same,TGI,MDA-MB-231 breast,> 10 µM
same,TGI,HT29 colon,> 10 µM
same,TGI,RXF 393 renal,> 10 µM
same,TGI,SN12C renal,> 10 µM
same,TGI,MDA-MB-435,> 10 µM
same,TGI,OVCAR-4 ovarian,> 10 µM
same,TGI,DU-145 prostate,> 10 µM
same,TGI,OVCAR-5 ovarian,> 10 µM
same,TGI,SNB-19 CNS,> 10 µM
same,TGI,UO-31 renal,> 10 µM
same,TGI,SK-MEL-2 melanoma,> 10 µM
same,TGI,OVCAR-3 ovarian,> 10 µM
same,TGI,LOX IMVI melanoma,> 10 µM
same,TGI,SK-OV-3 ovarian,> 10 µM
same,TGI,U251 CNS,> 10 µM
same,TGI,MDA-N,> 10 µM
same,TGI,MOLT-4 leukemia,> 10 µM
same,TGI,KM12 colon,> 10 µM
same,TGI,SK-MEL-5 melanoma,> 10 µM
same,TGI,SW-620 colon,> 10 µM
same,TGI,SR leukemia,> 10 µM
same,TGI,MCF7 breast,> 10 µM
same,TGI,SF-268 CNS,> 10 µM
same,TGI,786-0 renal,> 10 µM
same,TGI,SK-MEL-28 melanoma,> 10 µM
same,TGI,NCI/ADR-RES ovarian,> 10 µM
same,TGI,OVCAR-8 ovarian,> 10 µM
same,TGI,HS 578T breast,> 10 µM
same,TGI,A549 NSCLC,> 10 µM
same,TGI,ACHN renal,> 10 µM
same,TGI,T-47D breast,> 10 µM
same,TGI,COLO 205 colon,> 10 µM
same,TGI,CCRF-CEM leukemia,> 10 µM
same,TGI,IGROV1 ovarian,> 10 µM
same,TGI,A498 renal,> 10 µM
same,TGI,CAKI-1 renal,> 10 µM
same,TGI,UACC-62 melanoma,> 10 µM
same,TGI,SF-539 CNS,> 10 µM
same,TGI,HL-60(TB) leukemia,> 10 µM
same,TGI,NCI-H460 lung,> 10 µM
